Literature values as cited in patent US20120142631A1, “MEDICINAL ANTIDIAPER RASH CREAM INCORPORATING A BIOPOLYMER AND A PROCESS TO MAKE IT” (APEX LABORATORIES PRIVATE LIMITED, priority 2009, published 2012).
Where two headings read alike, the source gives them in different places.

Compound | Solubility (chloroform) | Solubility / miscibility (ethanol (95%)) | Solubility (ether) | Solubility / miscibility (water) | Solubility (acetone) | Solubility (ethanol)
CCCCCCCCCCCCCC[N+](C)(C)C.[Br-] [Cetrimide, tetradecyltrimethylammonium bromide] | freely soluble | freely soluble | practically insoluble | freely soluble |  | 
CCCCCCCCCCCCC[N+](C)(C)Cc1ccccc1.[Cl-] [Benzalkonium chloride, benzyl-dimethyl-tridecyl-azanium chloride] |  | miscible |  | miscible | readily soluble | readily soluble
